T/C data for 17 molecules are collected here from PubChem BioAssay AID298 (DTP/NCI, 2004).

Each structure is given as a SMILES string. Where “and” joins values, the source holds several entries; their conditions need not be identical. Equal values may be shown once. Inconclusive results are not listed.

The experiment deals with MX-1 breast xenograft, intrarenal, nude mice, tumor weight. The experiment in a line: NCI In Vivo Anticancer Drug Screen. Data for tumor model Human Mammary Carcinoma MX-1 Xenograft (intrarenal inoculation) in NU/NU BALB/C (nude) mice. Particulars: endpoint: mean tumor weight change, higher = larger tumour. On the procedure:
The antitumor activity of compounds was measured in mice bearing transplantable tumors. Survival or tumor size were measured and the results are expressed as the measurement made in the treated group (T) divided by the measurement made in the vehicle treated control group (C). The tumor model used in this assay is Human Mammary Carcinoma MX-1 Xenograft (intrarenal inoculation) in NU/NU BALB/C (nude) mice
A general note: Xenograft models place foreign cells or tissue in a host animal.

[1] abbreviates: dose: 100.0 mg/kg/injection, schedule: Q04DX003 (ip), vehicle: saline with Tween-80.
The mark [2] stands for this setting: dose: 150.0 mg/kg/injection, schedule: Q04DX003 (ip), vehicle: saline with Tween-80.
Where [3] appears, read: dose: 200.0 mg/kg/injection, schedule: Q04DX003 (ip), vehicle: saline with Tween-80.
The mark [4] stands for this setting: dose: 300.0 mg/kg/injection, schedule: Q04DX003 (ip), vehicle: saline with Tween-80.
Setting [5] is: dose: 400.0 mg/kg/injection, schedule: Q04DX003 (ip), vehicle: saline with Tween-80.
The mark [6] stands for this setting: dose: 600.0 mg/kg/injection, schedule: Q04DX003 (ip), vehicle: saline with Tween-80.
[7] abbreviates: dose: 150.0 mg/kg/injection, schedule: Q04DX003 (ip), vehicle: Klucel (hydroxypropylcellulose) (HPC).

Take `N[C@@H](Cc1ccc(N(CCCl)CCCl)cc1)C(=O)O`: the T/C is, setting by setting: (dose: 1.0 mg/kg/injection, schedule: Q01DX010 (sc), vehicle: saline) 1 % of control and 3 % of control; (dose: 1.0 mg/kg/injection, schedule: Q04DX003 (sc), vehicle: saline) 88 % of control; (dose: 1.5 mg/kg/injection, schedule: Q04DX003 (sc), vehicle: saline) 49 % of control; (dose: 2.0 mg/kg/injection, schedule: Q01DX010 (sc), vehicle: saline) -85 % of control and -79 % of control; (dose: 2.0 mg/kg/injection, schedule: Q04DX003 (ip), vehicle: saline with Tween-80) -48 % of control and -38 % of control; (dose: 2.0 mg/kg/injection, schedule: Q04DX003 (sc), vehicle: saline) 17 % of control. The T/C runs as follows: (dose: 3.0 mg/kg/injection, schedule: Q04DX003 (sc), vehicle: saline) 3 % of control; (dose: 4.0 mg/kg/injection, schedule: Q01DX010 (sc), vehicle: saline) -92 % of control and -70 % of control; (dose: 4.0 mg/kg/injection, schedule: Q04DX003 (ip), vehicle: saline with Tween-80) -94 % of control and -93 % of control; (dose: 4.0 mg/kg/injection, schedule: Q04DX003 (sc), vehicle: saline) -9 % of control; (dose: 6.0 mg/kg/injection, schedule: Q04DX003 (sc), vehicle: saline) -87 % of control; (dose: 8.0 mg/kg/injection, schedule: Q01DX010 (sc), vehicle: saline) -87 % of control. The T/C reads like this: (dose: 8.0 mg/kg/injection, schedule: Q04DX003 (ip), vehicle: saline with Tween-80) -100 % of control and -99 % of control; (dose: 8.0 mg/kg/injection, schedule: Q04DX003 (sc), vehicle: saline) -89 % of control; (dose: 12.0 mg/kg/injection, schedule: Q04DX003 (sc), vehicle: saline) -96 % of control.

Turning to `Cc1cnc(/C=N\NC(N)=S)c2cccc(N)c12`, the T/C (dose: 125.0 mg/kg/injection, schedule: Q04DX003 (ip), vehicle: saline with Tween-80) is 31 % of control.

For the molecule `CC(=O)Oc1c[nH]c(=O)[nH]c1=O`, the T/C reads like this: (dose: 300.0 mg/kg/injection, schedule: Q04DX003 (sc), vehicle: distilled water + Tween-80) 116 % of control; (dose: 600.0 mg/kg/injection, schedule: Q04DX003 (sc), vehicle: distilled water + Tween-80) 118 % of control; (dose: 1200.0 mg/kg/injection, schedule: Q04DX003 (sc), vehicle: distilled water + Tween-80) 102 % of control; (dose: 2400.0 mg/kg/injection, schedule: Q04DX003 (sc), vehicle: distilled water + Tween-80) 83 % of control.

Take `CCCCN1C(=O)N(c2ccc(OCC)cc2)C2N(CCCC)C1C(C)(C)C2(C)C` (configuration not stated): the T/C runs as follows: (dose: 15.0 mg/kg/injection, schedule: Q04DX003 (ip), vehicle: saline with Tween-80) 90 % of control; (dose: 30.0 mg/kg/injection, schedule: Q04DX003 (ip), vehicle: saline with Tween-80) 77 % of control; (dose: 60.0 mg/kg/injection, schedule: Q04DX003 (ip), vehicle: saline with Tween-80) 89 % of control; (dose: 240.0 mg/kg/injection, schedule: Q04DX003 (ip), vehicle: saline with Tween-80) 98 % of control.

For the molecule `O=C(NNC(=O)c1cccc(C(=O)NNC(=O)c2ccc(Cl)c(Cl)c2)n1)c1ccc(Cl)c(Cl)c1`, the T/C runs as follows: (dose: 50.0 mg/kg/injection, schedule: Q04DX003 (ip), vehicle: saline with Tween-80) 106 % of control; under setting [1], 78 % of control; under setting [2], 73 % of control; under setting [3], 98 % of control; under setting [4], 64 % of control; under setting [5], 102 % of control. In addition, under setting [6], the T/C was 65 % of control.

`O=C(Nc1ccccc1)c1c(O)[nH]c(=O)[nH]c1=O`: the T/C by setting is: under setting [1], 102 % of control; under setting [3], 71 % of control; under setting [5], 57 % of control.

As for `COC(=O)C1(F)C(=O)NC(=O)NC1OC` (configuration not stated), the T/C is, setting by setting: under setting [7], 85 % of control; (dose: 300.0 mg/kg/injection, schedule: Q04DX003 (ip), vehicle: Klucel (hydroxypropylcellulose) (HPC)) 93 % of control; (dose: 600.0 mg/kg/injection, schedule: Q04DX003 (ip), vehicle: Klucel (hydroxypropylcellulose) (HPC)) 43 % of control.

Take `CN1COc2c(n(C)c(=O)[nH]c2=O)C1`: the T/C was 85 % of control (dose: 100.0 mg/kg/injection, schedule: Q04DX003 (ip), vehicle: suspension in saline); 92 % of control (dose: 200.0 mg/kg/injection, schedule: Q04DX003 (ip), vehicle: saline); 65 % of control (dose: 200.0 mg/kg/injection, schedule: Q04DX003 (ip), vehicle: suspension in saline); 103 % of control (dose: 400.0 mg/kg/injection, schedule: Q04DX003 (ip), vehicle: saline); 68 % of control (dose: 400.0 mg/kg/injection, schedule: Q04DX003 (ip), vehicle: suspension in saline); 102 % of control (dose: 800.0 mg/kg/injection, schedule: Q04DX003 (ip), vehicle: saline). The T/C (dose: 800.0 mg/kg/injection, schedule: Q04DX003 (ip), vehicle: suspension in saline) is 72 % of control.

Consider `C/C=C/C=C\C=C/C(O)CC(OP(=O)(O)O)C(C)(O)/C=C/C1CC=CC(=O)O1` (configuration not stated), for which the T/C reads like this: (dose: 6.0 mg/kg/injection, schedule: Q04DX003 (ip), vehicle: water) 86 % of control; (dose: 12.0 mg/kg/injection, schedule: Q04DX003 (ip), vehicle: water) 56 % of control; (dose: 24.0 mg/kg/injection, schedule: Q04DX003 (ip), vehicle: water) 50 % of control.

Take `CC[C@@]1(O)C(=O)OCc2c1cc1n(c2=O)Cc2cc3ccccc3nc2-1`: the T/C by setting is: (dose: 10.0 mg/kg/injection, schedule: Q04DX003 (sc), vehicle: saline with Tween-80) -84 % of control and -100 % of control; (dose: 20.0 mg/kg/injection, schedule: Q04DX003 (sc), vehicle: saline with Tween-80) -100 % of control and -95 % of control; (dose: 40.0 mg/kg/injection, schedule: Q04DX003 (sc), vehicle: saline with Tween-80) -100 % of control.

As to `Cc1ccc(C2=CSC3=NCCN23)cc1Cl`, under “dose: 37.5 mg/kg/injection, schedule: Q04DX003 (ip), vehicle: saline”, the T/C was 85 % of control.

`ClCCCN1CCCCC1CCl` (configuration not stated): the T/C reads like this: (dose: 6.25 mg/kg/injection, schedule: Q04DX003 (sc), vehicle: saline) 53 % of control; (dose: 12.5 mg/kg/injection, schedule: Q04DX003 (sc), vehicle: saline) 3 % of control; (dose: 25.0 mg/kg/injection, schedule: Q04DX003 (sc), vehicle: saline) -13 % of control.

Take `CNC(=O)Oc1ccc(S(=O)(=O)c2ccc(OC(=O)NC)cc2)cc1`: the T/C was 98 % of control under setting [2], 89 % of control under setting [4] and 33 % of control under setting [6].

In the case of `COc1cc2c(cc1OC)[C@@H]1C(=O)c3ccc4c(c3O[C@@H]1CO2)C[C@H](C(C)C)O4`, the T/C was 78 % of control (dose: 37.5 mg/kg/injection, schedule: Q04DX003 (ip), vehicle: Klucel (hydroxypropylcellulose) (HPC)); 55 % of control (dose: 75.0 mg/kg/injection, schedule: Q04DX003 (ip), vehicle: Klucel (hydroxypropylcellulose) (HPC)); 57 % of control under setting [7].

For the molecule `CNC(=O)ON(C(C)=O)C(=O)NC`, the T/C is 218 % of control (dose: 12.5 mg/kg/injection, schedule: Q01DX010 (ip), vehicle: saline); 106 % of control (dose: 25.0 mg/kg/injection, schedule: Q01DX010 (ip), vehicle: saline); 104 % of control (dose: 25.0 mg/kg/injection, schedule: Q01DX010 (sc), vehicle: saline); 72 % of control (dose: 50.0 mg/kg/injection, schedule: Q01DX010 (ip), vehicle: saline); 26 % of control (dose: 50.0 mg/kg/injection, schedule: Q01DX010 (sc), vehicle: saline); 5 % of control (dose: 100.0 mg/kg/injection, schedule: Q01DX010 (ip), vehicle: saline). The T/C runs as follows: (dose: 100.0 mg/kg/injection, schedule: Q01DX010 (sc), vehicle: saline) -42 % of control; (dose: 200.0 mg/kg/injection, schedule: Q01DX010 (sc), vehicle: saline) -89 % of control.

Regarding `Nc1ccn(C2OC(CO)C(O)C2O)c(=O)n1` (configuration not stated), the T/C (dose: 500.0 mg/kg/injection, schedule: Q04DX003 (sc), vehicle: saline) is 57 % of control and the T/C (dose: 1000.0 mg/kg/injection, schedule: Q04DX003 (sc), vehicle: saline) was 68 % of control.

Consider `NC(=O)C1C=CN(Cc2ccccc2)C=C1`, for which the T/C is, setting by setting: under setting [1], 62 % of control; under setting [3], 64 % of control.
